From PubChem BioAssay (NCI)
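1) Cells in 96-well plates. 2) Compound, 48 h, 5 concentrations. 3) Linear interpolation between surrounding doses. 4) Unreached endpoint = highest concentration. GI50 marks 50% less growth. At the TGI there is no net growth.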

Tests used:
Test in all cases: DTP human tumour cell line panel, 48 h
[1] = test system: RXF 393 renal
[2] = test system: SNB-19 CNS
[3] = test system: COLO 205 colon
[4] = test system: SK-MEL-28 melanoma
[5] = test system: OVCAR-8 ovarian
[6] = test system: HL-60(TB) leukemia
[7] = test system: NCI-H460 lung
[8] = test system: HOP-62 NSCLC
[9] = test system: RPMI-8226 leukemia
[10] = test system: CCRF-CEM leukemia

In the case of O=C1CCC(c2ccccc2)=NN1c1nsc2ccccc12, the TGI [1] is reported as over 100 µM, the TGI [2] is reported as over 100 µM and the TGI [3] is reported as over 100 µM. It also gave a TGI [4] of over 100 µM, a TGI [5] of over 100 µM and a TGI [6] of over 100 µM. It also gave a TGI [7] of over 100 µM, a TGI [8] of over 100 µM and a TGI [9] of over 100 µM. For the same molecule, the TGI [10] was over 100 µM.
Molecule COc1cnc2c(c1)C(=O)c1c-2n(CCCN2CCOCC2)c(=O)c2cc(Cl)ccc12 has a GI50 [1] of 0.332 µM, a TGI [1] of 28 µM and a GI50 [2] of 0.31 µM. The TGI [2] was over 100 µM, the GI50 [3] was 0.193 µM and the TGI [3] was over 100 µM. It also gave a GI50 [4] of over 100 µM, a TGI [4] of over 100 µM and a GI50 [5] of 0.578 µM. It also gave a TGI [5] of over 100 µM, a GI50 [6] of 0.455 µM and a TGI [6] of over 100 µM. For the same molecule, the GI50 [7] was 0.0701 µM, the TGI [7] was over 100 µM and the GI50 [8] was 0.274 µM. For the same molecule, the TGI [8] was 22.4 µM, the GI50 [9] was 0.426 µM and the TGI [9] was over 100 µM. The GI50 [10] was 0.12 µM and the TGI [10] was over 100 µM.
Molecule COc1cccc(N2C(Cl)C(=O)C2c2c[nH]c3ccccc23)c1 (stereo not given) has a TGI [1] of over 100 µM, a TGI [2] of over 100 µM and a TGI [3] of over 100 µM. The TGI [4] was over 100 µM, the TGI [5] was over 100 µM and the TGI [6] was over 100 µM. The TGI [7] was over 100 µM, the TGI [8] was over 100 µM and the TGI [9] was over 100 µM. It also gave a TGI [10] of over 100 µM.
